Source: US11945822B2, “Pyrazolo-triazine and/or pyrazolo-pxrimidine derivatives as selective inhibitor of cyclin dependent kinase” (QURIENT CO., LTD., priority 2018, dated 2024)

system: MV4-11; assay: Cellular MV4-11 viability assay (CellTiter-Glo, 72 hours); type: cell-based; conditions: Homo sapiens
Protocol: (§1) All cell lines were routinely tested for mycoplasma.
(§2) The effect of the CDK7 inhibitor to inhibit the growth of target cancer cells was evaluated through the 72 hours time period of viability assay. Briefly, the candidate cell line ware plated in 96 well plate at the following density of cells respectively. […] DMSO solvent without compound served as a control and final DMSO concentration less than 0.1%. After 72 hours of incubation at 37° C., 5% CO2 incubator, cells were analyzed for the viability using the CellTiter-Glo Luminescent Cell Viability Assay (Promega, Cat #G7570). All viability assays were performed in duplicate and Luminescence was read using an Envision (Perkin Elmer, USA). Data was analyzed using XLfit software.

| IC50 [nM] | Compound |
| --- | --- |
| 1000 to 10000 | Cc1cccc(C)c1CNc1nc(N2CCC(N)CC2)nc2c(C(C)C)cnn12 [Compound 235] |
| < 1000 | CC(C)c1cnn2c(NCc3ccccc3-n3ccc(C(C)(C)O)n3)nc(NCC3CCNCC3)nc12 [Compound 224] |
| < 1000 | CC(C)c1cnn2c(NCc3ccccc3-n3cc(N4CCN(C)CC4)cn3)nc(N3CCC(N)CC3)nc12 [Compound 179] |
| < 1000 | CC(C)c1cnn2c(NCc3ccccc3-n3cc(C(=O)Nc4ccccc4)cn3)nc(N3CCC(N)CC3)nc12 [Compound 152] |

target: T1, CDK5/p25 (Homo sapiens, UniProt Q00535); assay: Enzymatic assay for CDK5 (FRET based LANCE Ultra kinase assay); type: biochemical; conditions: read-out: CDK5 enzymatic activity (IC50 range)
T1 construct: purchased Invitrogen PR8543B
T1 sequence (Q00535 whole entry): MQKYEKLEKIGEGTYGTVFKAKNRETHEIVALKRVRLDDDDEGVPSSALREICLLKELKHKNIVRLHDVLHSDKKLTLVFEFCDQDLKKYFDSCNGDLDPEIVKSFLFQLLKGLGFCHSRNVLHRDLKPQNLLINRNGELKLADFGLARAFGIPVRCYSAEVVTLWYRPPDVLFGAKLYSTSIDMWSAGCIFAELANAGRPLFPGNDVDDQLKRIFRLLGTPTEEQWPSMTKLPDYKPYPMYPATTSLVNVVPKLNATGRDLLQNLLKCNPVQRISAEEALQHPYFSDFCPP
T1 sequence (Q15078 99-307 partner limits assumed): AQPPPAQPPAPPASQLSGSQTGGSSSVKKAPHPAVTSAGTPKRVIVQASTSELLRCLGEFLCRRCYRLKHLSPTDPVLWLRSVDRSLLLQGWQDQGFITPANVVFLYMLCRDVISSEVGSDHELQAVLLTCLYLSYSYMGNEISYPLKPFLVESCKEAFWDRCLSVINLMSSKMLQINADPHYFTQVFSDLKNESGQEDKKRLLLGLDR
Protocol: (§3) Enzymatic Binding Assay Protocol for CDK1, CDK2, CDK5 and CDK7
(§4) Inhibition activity of the respective compound on CDK kinase under Km value of ATP was tested in FRET based The LANCE® Ultra kinase assay (Perkin Elmer), which uses a ULight™-labeled peptide substrate and an appropriate Europium-labeled anti-phospho-antibody. Test compounds were made with DMSO solutions, and then 4-fold serial dilutions for 8 doses were prepared using automated liquid handler (POD810, LABCYTE) and 80 nL/well of diluted compound solutions were added into the 384-well plates (Greiner, Cat #784075). And then 68 nM of ULight-MBP peptide (Perkin Elmer, Cat #TRF0109-M) and 5 ul/well of ATP (Sigma, Cat #A7699) were added to the plate. After 1 min centrifugation at 1000 rpm, Purified CDKs/Cyclin complex were added following concentrations respectively. 24 uM for CDK1/Cyclin B (Invitrogen, Cat #PR4768C), 22 uM for CDK2/Cyclin A (Invitrogen, Cat #PV6290), 10 uM for CDK5/p25 (Invitrogen, Cat #PR8543B) and […] for CDK7/Cyclin H/MNAT1 (Invitrogen, Cat #PR6749B) were added to the each corresponding plate for CDK1, CDK2, CDK5 and CDK7. Incubate at 23° C. for 60 min and then Eu-labeled anti-phospho-Myelin Basic Protein (PE, Cat #TRF0201-M) and EDTA (Invitrogen, Cat #15575038) mixture in Lance Detection Buffer (Perkin Elmer, Cat #CR97100) was added in each well. After additional incubation at 23° C. for 60 min, test articles were measured the fluorescence using Envision leader (Perkin Elmer, USA) [Laser as excitation light; […] as the first and the second emission filter]. Data was analyzed using XL Fit software.

| IC50 [nM] | Compound |
| --- | --- |
| 100 to 1000 | Cc1cccc(C)c1CNc1nc(N2CCC(N)CC2)nc2c(C(C)C)cnn12 [Compound 235] |
| > 1000 | CC(C)c1cnn2c(NCc3ccccc3-n3ccc(C(C)(C)O)n3)nc(NCC3CCNCC3)nc12 [Compound 224] |
| 100 to 1000 | CC(C)c1cnn2c(NCc3ccccc3-n3cc(N4CCN(C)CC4)cn3)nc(N3CCC(N)CC3)nc12 [Compound 179] |
| < 100 | CC(C)c1cnn2c(NCc3ccccc3-n3cc(C(=O)Nc4ccccc4)cn3)nc(N3CCC(N)CC3)nc12 [Compound 152] |

target: T2, CDK1/Cyclin B (Homo sapiens, UniProt P06493); assay: Enzymatic assay for CDK1 (FRET based LANCE Ultra kinase assay); type: biochemical; conditions: read-out: CDK1 enzymatic activity (IC50 range)
T2 construct: purchased Invitrogen PR4768C
T2 sequence (P06493 whole entry): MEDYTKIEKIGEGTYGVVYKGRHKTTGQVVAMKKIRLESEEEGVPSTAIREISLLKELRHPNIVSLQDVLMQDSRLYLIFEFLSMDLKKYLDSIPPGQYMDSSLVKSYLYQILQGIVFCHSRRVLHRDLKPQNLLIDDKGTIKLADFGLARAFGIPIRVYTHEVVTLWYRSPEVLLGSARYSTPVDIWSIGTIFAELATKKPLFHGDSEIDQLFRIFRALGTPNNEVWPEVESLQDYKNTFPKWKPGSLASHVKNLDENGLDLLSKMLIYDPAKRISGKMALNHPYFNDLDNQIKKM
T2 sequence (P14635 whole entry partner): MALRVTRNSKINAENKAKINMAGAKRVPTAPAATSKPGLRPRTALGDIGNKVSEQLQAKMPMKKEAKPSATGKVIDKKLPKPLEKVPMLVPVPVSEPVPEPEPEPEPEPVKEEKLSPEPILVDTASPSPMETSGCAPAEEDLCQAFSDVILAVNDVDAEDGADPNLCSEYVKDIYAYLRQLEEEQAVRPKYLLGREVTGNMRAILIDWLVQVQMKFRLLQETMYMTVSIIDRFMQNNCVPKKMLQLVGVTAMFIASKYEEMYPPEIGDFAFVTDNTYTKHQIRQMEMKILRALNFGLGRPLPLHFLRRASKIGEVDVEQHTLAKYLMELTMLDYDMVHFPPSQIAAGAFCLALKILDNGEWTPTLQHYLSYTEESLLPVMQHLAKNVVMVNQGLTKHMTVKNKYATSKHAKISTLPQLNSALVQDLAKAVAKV
Protocol: as §3, §4

| IC50 [nM] | Compound |
| --- | --- |
| > 1000 | Cc1cccc(C)c1CNc1nc(N2CCC(N)CC2)nc2c(C(C)C)cnn12 [Compound 235] |
| > 1000 | CC(C)c1cnn2c(NCc3ccccc3-n3ccc(C(C)(C)O)n3)nc(NCC3CCNCC3)nc12 [Compound 224] |
| 100 to 1000 | CC(C)c1cnn2c(NCc3ccccc3-n3cc(N4CCN(C)CC4)cn3)nc(N3CCC(N)CC3)nc12 [Compound 179] |
| > 1000 | CC(C)c1cnn2c(NCc3ccccc3-n3cc(C(=O)Nc4ccccc4)cn3)nc(N3CCC(N)CC3)nc12 [Compound 152] |

target: T3, CDK7/Cyclin H/MNAT1 (Homo sapiens, UniProt P50613); assay: Enzymatic assay for CDK7 (FRET based LANCE Ultra kinase assay); type: biochemical; conditions: CDK7 over CDK1
T3 construct: purchased Invitrogen PR6749B
T3 sequence (P50613 whole entry): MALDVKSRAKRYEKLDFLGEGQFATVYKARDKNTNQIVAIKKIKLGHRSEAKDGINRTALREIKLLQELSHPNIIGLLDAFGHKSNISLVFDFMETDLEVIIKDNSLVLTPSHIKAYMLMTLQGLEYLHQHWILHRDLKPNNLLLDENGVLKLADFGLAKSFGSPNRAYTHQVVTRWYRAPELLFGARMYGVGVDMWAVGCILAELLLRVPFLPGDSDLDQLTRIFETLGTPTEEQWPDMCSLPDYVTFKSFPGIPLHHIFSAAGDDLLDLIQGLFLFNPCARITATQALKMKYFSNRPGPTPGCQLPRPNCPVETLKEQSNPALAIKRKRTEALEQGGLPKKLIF
T3 sequence (P51946 whole entry partner): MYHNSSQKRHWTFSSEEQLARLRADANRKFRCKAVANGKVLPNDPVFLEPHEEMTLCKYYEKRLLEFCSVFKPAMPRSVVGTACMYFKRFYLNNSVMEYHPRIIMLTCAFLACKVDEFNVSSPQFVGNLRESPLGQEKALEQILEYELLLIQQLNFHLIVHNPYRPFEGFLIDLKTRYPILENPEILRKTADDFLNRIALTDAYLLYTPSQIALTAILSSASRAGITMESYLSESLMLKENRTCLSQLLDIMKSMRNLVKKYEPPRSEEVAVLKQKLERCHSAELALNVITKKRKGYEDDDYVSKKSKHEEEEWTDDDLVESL
T3 sequence (P51948 whole entry partner): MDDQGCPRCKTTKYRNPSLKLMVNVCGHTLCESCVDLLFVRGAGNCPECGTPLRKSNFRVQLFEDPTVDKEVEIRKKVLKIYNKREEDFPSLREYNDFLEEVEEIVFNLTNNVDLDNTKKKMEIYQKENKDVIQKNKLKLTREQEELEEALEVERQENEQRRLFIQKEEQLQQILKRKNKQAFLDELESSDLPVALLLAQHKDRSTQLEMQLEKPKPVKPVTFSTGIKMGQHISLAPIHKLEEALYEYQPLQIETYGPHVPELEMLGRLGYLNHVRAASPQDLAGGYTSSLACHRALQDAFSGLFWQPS
Protocol: as §3
Inhibition activity of the respective compound on CDK kinase under Km value of ATP was tested in FRET based The LANCE® Ultra kinase assay (Perkin Elmer), which uses a ULight™-labeled peptide substrate and an appropriate Europium-labeled anti-phospho-antibody. […] After 1 min centrifugation at 1000 rpm, Purified CDKs/Cyclin complex were added following concentrations respectively. […] Data was analyzed using XL Fit software.

| CDK1/CDK7: Selectivity of CDK7 inhibition over CDK1 inhibition | Compound |
| --- | --- |
| A (A=greater than 200 fold) | Cc1cccc(C)c1CNc1nc(N2CCC(N)CC2)nc2c(C(C)C)cnn12 [Compound 235] |
| A (A=greater than 200 fold) | CC(C)c1cnn2c(NCc3ccccc3-n3ccc(C(C)(C)O)n3)nc(NCC3CCNCC3)nc12 [Compound 224] |
| A (A=greater than 200 fold) | CC(C)c1cnn2c(NCc3ccccc3-n3cc(C(=O)Nc4ccccc4)cn3)nc(N3CCC(N)CC3)nc12 [Compound 152] |

| Compound | CDK1/CDK7: Selectivity of CDK7 inhibition over CDK1 inhibition |
| --- | --- |
| CC(C)c1cnn2c(NCc3ccccc3-n3cc(N4CCN(C)CC4)cn3)nc(N3CCC(N)CC3)nc12 [Compound 179] | B (B=less than 200 fold, but greater than 20 fold) |

same assay, conditions: CDK7 over CDK2

| Compound | CDK2/CDK7: Selectivity of CDK7 inhibition over CDK2 inhibition |
| --- | --- |
| Cc1cccc(C)c1CNc1nc(N2CCC(N)CC2)nc2c(C(C)C)cnn12 [Compound 235] | B (B=less than 200 fold, but greater than 20 fold) |
| CC(C)c1cnn2c(NCc3ccccc3-n3ccc(C(C)(C)O)n3)nc(NCC3CCNCC3)nc12 [Compound 224] | A (A=greater than 200 fold) |
| CC(C)c1cnn2c(NCc3ccccc3-n3cc(N4CCN(C)CC4)cn3)nc(N3CCC(N)CC3)nc12 [Compound 179] | B (B=less than 200 fold, but greater than 20 fold) |
| CC(C)c1cnn2c(NCc3ccccc3-n3cc(C(=O)Nc4ccccc4)cn3)nc(N3CCC(N)CC3)nc12 [Compound 152] | B (B=less than 200 fold, but greater than 20 fold) |

same assay, conditions: CDK7 over CDK5

| Compound | CDK5/CDK7: Selectivity of CDK7 inhibition over CDK5 inhibition |
| --- | --- |
| Cc1cccc(C)c1CNc1nc(N2CCC(N)CC2)nc2c(C(C)C)cnn12 [Compound 235] | B (B=less than 200 fold, but greater than 20 fold) |
| CC(C)c1cnn2c(NCc3ccccc3-n3ccc(C(C)(C)O)n3)nc(NCC3CCNCC3)nc12 [Compound 224] | A (A=greater than 200 fold) |
| CC(C)c1cnn2c(NCc3ccccc3-n3cc(N4CCN(C)CC4)cn3)nc(N3CCC(N)CC3)nc12 [Compound 179] | B (B=less than 200 fold, but greater than 20 fold) |
| CC(C)c1cnn2c(NCc3ccccc3-n3cc(C(=O)Nc4ccccc4)cn3)nc(N3CCC(N)CC3)nc12 [Compound 152] | B (B=less than 200 fold, but greater than 20 fold) |

same assay, conditions: read-out: CDK7 enzymatic activity (IC50 range)

| IC50 [nM] | Compound |
| --- | --- |
| < 100 | Cc1cccc(C)c1CNc1nc(N2CCC(N)CC2)nc2c(C(C)C)cnn12 [Compound 235] |
| < 100 | CC(C)c1cnn2c(NCc3ccccc3-n3ccc(C(C)(C)O)n3)nc(NCC3CCNCC3)nc12 [Compound 224] |
| < 100 | CC(C)c1cnn2c(NCc3ccccc3-n3cc(N4CCN(C)CC4)cn3)nc(N3CCC(N)CC3)nc12 [Compound 179] |
| < 100 | CC(C)c1cnn2c(NCc3ccccc3-n3cc(C(=O)Nc4ccccc4)cn3)nc(N3CCC(N)CC3)nc12 [Compound 152] |

system: HCT116; assay: Cellular HCT116 viability assay (CellTiter-Glo, 72 hours); type: cell-based; conditions: Homo sapiens, HCT-116
Protocol: as §1, §2

| IC50 [nM] | Compound |
| --- | --- |
| 1000 to 10000 | Cc1cccc(C)c1CNc1nc(N2CCC(N)CC2)nc2c(C(C)C)cnn12 [Compound 235] |
| < 1000 | CC(C)c1cnn2c(NCc3ccccc3-n3ccc(C(C)(C)O)n3)nc(NCC3CCNCC3)nc12 [Compound 224] |
| < 1000 | CC(C)c1cnn2c(NCc3ccccc3-n3cc(N4CCN(C)CC4)cn3)nc(N3CCC(N)CC3)nc12 [Compound 179] |
| < 1000 | CC(C)c1cnn2c(NCc3ccccc3-n3cc(C(=O)Nc4ccccc4)cn3)nc(N3CCC(N)CC3)nc12 [Compound 152] |

system: H460; assay: Cellular H460 viability assay (CellTiter-Glo, 72 hours); type: cell-based; conditions: Homo sapiens, NCI-H460
Protocol: as §1, §2

| IC50 [nM] | Compound |
| --- | --- |
| 1000 to 10000 | Cc1cccc(C)c1CNc1nc(N2CCC(N)CC2)nc2c(C(C)C)cnn12 [Compound 235] |
| < 1000 | CC(C)c1cnn2c(NCc3ccccc3-n3ccc(C(C)(C)O)n3)nc(NCC3CCNCC3)nc12 [Compound 224] |
| < 1000 | CC(C)c1cnn2c(NCc3ccccc3-n3cc(N4CCN(C)CC4)cn3)nc(N3CCC(N)CC3)nc12 [Compound 179] |
| < 1000 | CC(C)c1cnn2c(NCc3ccccc3-n3cc(C(=O)Nc4ccccc4)cn3)nc(N3CCC(N)CC3)nc12 [Compound 152] |

target: T4, CDK2/Cyclin A (Homo sapiens, UniProt P24941); assay: Enzymatic assay for CDK2 (FRET based LANCE Ultra kinase assay); type: biochemical; conditions: read-out: CDK2 enzymatic activity (IC50 range)
T4 construct: purchased Invitrogen PV6290
Protocol: as §3, §4

| IC50 [nM] | Compound |
| --- | --- |
| > 1000 | Cc1cccc(C)c1CNc1nc(N2CCC(N)CC2)nc2c(C(C)C)cnn12 [Compound 235] |
| > 1000 | CC(C)c1cnn2c(NCc3ccccc3-n3ccc(C(C)(C)O)n3)nc(NCC3CCNCC3)nc12 [Compound 224] |
| 100 to 1000 | CC(C)c1cnn2c(NCc3ccccc3-n3cc(N4CCN(C)CC4)cn3)nc(N3CCC(N)CC3)nc12 [Compound 179] |
| 100 to 1000 | CC(C)c1cnn2c(NCc3ccccc3-n3cc(C(=O)Nc4ccccc4)cn3)nc(N3CCC(N)CC3)nc12 [Compound 152] |
